Data: PubChem BioAssay (NCI)
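Dose response: 5 concentrations. Exposure: 48 h. Format: 96-well plates. Endpoint: linear interpolation; highest concentration if not reached. At the TGI there is no net growth.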

Experiments:
Test in all cases: NCI tumour cell line growth inhibition, 48 h
[1] = system: SN12K1 renal
[2] = system: HCC-2998 colon
[3] = system: XF 498 CNS
[4] = system: DMS 273 small cell lung
[5] = system: P388/ADR leukemia
[6] = system: HOP-18 NSCLC
[7] = system: SNB-78 CNS
[8] = system: P388 leukemia
[9] = system: RXF-631 renal
[10] = system: LXFL 529 NSCLC
[11] = system: MDA-MB-231 breast
[12] = system: MDA-MB-435

Which results are given for `N=[N+]=CC(=O)CCC(NC(=O)C(CCC(=O)C=[N+]=N)NC(=O)CCC(N)C(=O)O)C(=O)O` (stereo not given)?
TGI [1]: > 100 µM; TGI [2]: > 100 µM; TGI [3]: > 100 µM; TGI [4]: > 100 µM; TGI [5]: > 100 µM; TGI [6]: > 100 µM; TGI [7]: > 100 µM; TGI [8]: > 100 µM

With `C1CSC(=[N+]2CC[N+](=C3SCCS3)CC2)S1` as the molecule, how does the TGI [9] read?
Its TGI is over 100 µM.

And the TGI [2]?
The TGI was over 100 µM.

And the TGI [10]?
The TGI was over 100 µM.

And the TGI [4]?
Its TGI is over 100 µM.

And the TGI [6]?
The TGI was over 100 µM.

And the TGI [7]?
The TGI was over 100 µM.

How did the TGI [11] turn out when `Cc1ccc(N=Nc2ccc(N)cc2C)c(S(N)(=O)=O)c1` was run?
The TGI was over 100 µM.

Which results are given for `CC(C)(C)C(=O)CP(=O)(O)O`?
TGI [11]: > 100 µM; TGI [12]: > 100 µM

With `C[n+]1c2ccccc2c(NC(CS)C(=O)O)c2ccccc21` (stereo not given) as the molecule, how does the TGI [9] read?
The TGI was over 100 µM.

And the TGI [2]?
Its TGI is over 100 µM.

And the TGI [3]?
The TGI was 33.9 µM.

What about the TGI [10] of the same molecule?
The TGI was over 100 µM.

And the TGI [4]?
Its TGI is 89.9 µM.

What about the TGI [6] of the same molecule?
The TGI was over 100 µM.

What about the TGI [7] of the same molecule?
Its TGI is over 100 µM.

For `C/C(=N\NC(=S)N1CCN(C)CC1)c1nc2ncccc2[nH]1`, which TGI [2] is on record?
The TGI was over 100 µM.

And the TGI [11]?
Its TGI is over 100 µM.

What about the TGI [12] of the same molecule?
Its TGI is over 100 µM.

How did the TGI [2] turn out when `OC(c1cc(-c2ccc(Cl)cc2)nc2ccccc12)C1CCCCN1` (stereo not given) was run?
Its TGI is 3.94 µM.

What about the TGI [11] of the same molecule?
Its TGI is 3.58 µM.

And the TGI [12]?
Its TGI is 4.35 µM.
